“And” between values parts separate entries of the source, which are not always exact repeats. Equal values may be shown once. Results filed as inconclusive are left out.
Tested on: nude mice, LX-1 lung xenograft intrarenal, tumor weight T/C
Test: NCI In Vivo Anticancer Drug Screen. Data for tumor model Human Lung LX-1 Xenograft (intrarenal inoculation) in NU/NU Swiss (nude) mice
Details: endpoint: mean tumor weight change, higher = larger tumour
Outline: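 Activity was scored by measuring tumors in treated animals and in vehicle controls, then reporting the treated result as a fraction of the control result.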

[1] = dose: 100.0 mg/kg/injection, schedule: Q01DX010 (sc), vehicle: saline with Tween-80
[2] = dose: 200.0 mg/kg/injection, schedule: Q01DX010 (sc), vehicle: saline with Tween-80
[3] = dose: 100.0 mg/kg/injection, schedule: Q04DX003 (sc), vehicle: saline
[4] = dose: 200.0 mg/kg/injection, schedule: Q04DX003 (sc), vehicle: saline
[5] = dose: 16.0 mg/kg/injection, schedule: Q04DX003 (sc), vehicle: saline
[6] = dose: 50.0 mg/kg/injection, schedule: Q01DX010 (sc), vehicle: saline with Tween-80
[7] = dose: 50.0 mg/kg/injection, schedule: Q01DX010 (sc), vehicle: Klucel (hydroxypropylcellulose) (HPC)
[8] = dose: 100.0 mg/kg/injection, schedule: Q01DX010 (sc), vehicle: Klucel (hydroxypropylcellulose) (HPC)
[9] = dose: 200.0 mg/kg/injection, schedule: Q01DX010 (sc), vehicle: Klucel (hydroxypropylcellulose) (HPC)

O=NN(CCF)C(=O)NC1CCCCC1
T/C (dose: 6.25 mg/kg/injection, schedule: Q04DX003 (sc), vehicle: Klucel (hydroxypropylcellulose) (HPC)): 66 % of control | T/C (dose: 12.5 mg/kg/injection, schedule: Q04DX003 (sc), vehicle: Klucel (hydroxypropylcellulose) (HPC)): 39 % of control

CCCNC1=C(C)C(=O)C2=C(C1=O)[C@H](COC(N)=O)[C@]1(OC)[C@@H]3N[C@@H]3CN21
T/C (dose: 3.0 mg/kg/injection, schedule: Q04DX003 (sc), vehicle: suspension in saline): 32 % of control | T/C (dose: 24.0 mg/kg/injection, schedule: Q04DX003 (sc), vehicle: suspension in saline): 5 % of control and 17 % of control and 28 % of control

CCCCCCCCCCCCCCCC(=O)Nc1ccn(C2OC(CO)C(O)C2O)c(=O)n1 (configuration not stated)
T/C (dose: 150.0 mg/kg/injection, schedule: Q04DX003 (sc), vehicle: water): 32 % of control and 33 % of control

Cc1ccc2nc(-c3ccc4nc(-c5ccc(N=Nc6ccc(-c7nc8ccc(-c9nc%10ccc(C)c(S(=O)(=O)O)c%10s9)cc8s7)cc6)cc5)sc4c3)sc2c1S(=O)(=O)O
T/C (dose: 100.0 mg/kg/injection, schedule: Q04DX003 (sc), vehicle: suspension in saline): 76 % of control | T/C (dose: 400.0 mg/kg/injection, schedule: Q04DX003 (sc), vehicle: suspension in saline): 64 % of control | T/C (dose: 800.0 mg/kg/injection, schedule: Q04DX003 (sc), vehicle: suspension in saline): 101 % of control

CC1(C)CC1(Br)Br
T/C [1]: 160 % of control | T/C [2]: 76 % of control and 77 % of control | T/C (dose: 400.0 mg/kg/injection, schedule: Q01DX010 (sc), vehicle: saline with Tween-80): 58 % of control

Oc1ccc(O)cc1
T/C (dose: 25.0 mg/kg/injection, schedule: Q04DX003 (sc), vehicle: saline): 102 % of control | T/C (dose: 50.0 mg/kg/injection, schedule: Q04DX003 (sc), vehicle: saline): 85 % of control and 98 % of control | T/C [3]: 92 % of control and 93 % of control | T/C [4]: 109 % of control

Cc1c(N)nc([C@H](CC(N)=O)NC[C@H](N)C(N)=O)nc1C(=O)N[C@H](C(=O)N[C@H](C)[C@@H](O)[C@H](C)C(=O)N[C@H](C(=O)NCCc1nc(-c2nc(C(=O)NCCC[S+](C)C)cs2)cs1)[C@@H](C)O)C(OC1OC(CO)C(O)C(O)C1OC1OC(CO)C(O)C(OC(N)=O)C1O)c1cnc[nH]1 (some centres not stated)
T/C (dose: 2.0 mg/kg/injection, schedule: Q01DX010 (sc), vehicle: saline): 14 % of control | T/C (dose: 4.0 mg/kg/injection, schedule: Q01DX010 (sc), vehicle: saline): 71 % of control | T/C [5]: 49 % of control | T/C (dose: 32.0 mg/kg/injection, schedule: Q04DX003 (sc), vehicle: saline): 47 % of control

O=C1C2CC=CCC2C(=O)N1SC(Cl)(Cl)Cl (configuration not stated)
T/C (dose: 6.25 mg/kg/injection, schedule: Q01DX010 (sc), vehicle: saline with Tween-80): 102 % of control | T/C (dose: 12.5 mg/kg/injection, schedule: Q01DX010 (sc), vehicle: saline with Tween-80): 56 % of control | T/C [6]: 64 % of control and 86 % of control | T/C [1]: 76 % of control | T/C [2]: 97 % of control

COC1=C(C)C(=O)C2=C(C1=O)C1C3CC4=C(C(=O)C(OC)=C(C)C4=O)C(CNC(=O)C(C)=O)N3C(C#N)C(C2)N1C (configuration not stated)
T/C (dose: 1.0 mg/kg/injection, schedule: Q04DX003 (sc), vehicle: Klucel (hydroxypropylcellulose) (HPC)): 111 % of control | T/C (dose: 2.0 mg/kg/injection, schedule: Q04DX003 (sc), vehicle: Klucel (hydroxypropylcellulose) (HPC)): 105 % of control | T/C (dose: 4.0 mg/kg/injection, schedule: Q04DX003 (sc), vehicle: Klucel (hydroxypropylcellulose) (HPC)): 59 % of control

COc1ccc(/C=C/C(=O)c2cc(C(=O)O)c(OC)cc2OC)cc1OC
T/C (dose: 300.0 mg/kg/injection, schedule: Q04DX003 (sc), vehicle: suspension in saline): 100 % of control | T/C (dose: 600.0 mg/kg/injection, schedule: Q04DX003 (sc), vehicle: suspension in saline): 56 % of control | T/C (dose: 1200.0 mg/kg/injection, schedule: Q04DX003 (sc), vehicle: suspension in saline): 73 % of control | T/C (dose: 2400.0 mg/kg/injection, schedule: Q04DX003 (sc), vehicle: suspension in saline): 66 % of control

C=CC(C)(C)n1cc(C2=C(O)C(=O)C(c3cn(C(C)(C)C=C)c4ccccc34)=C(O)C2=O)c2ccccc21
T/C (dose: 50.0 mg/kg/injection, schedule: Q04DX003 (sc), vehicle: Klucel (hydroxypropylcellulose) (HPC)): 63 % of control | T/C (dose: 100.0 mg/kg/injection, schedule: Q04DX003 (sc), vehicle: Klucel (hydroxypropylcellulose) (HPC)): 71 % of control | T/C (dose: 200.0 mg/kg/injection, schedule: Q04DX003 (sc), vehicle: Klucel (hydroxypropylcellulose) (HPC)): 124 % of control | T/C (dose: 400.0 mg/kg/injection, schedule: Q04DX003 (sc), vehicle: Klucel (hydroxypropylcellulose) (HPC)): 83 % of control

CC/C(=C(/CC)c1ccc(O)cc1)c1ccc(O)cc1
T/C [6]: 106 % of control | T/C [1]: 105 % of control

O=C1c2ccccc2C(=O)c2c(NCCNCCO)ccc(NCCNCCO)c21
T/C (dose: 4.0 mg/kg/injection, schedule: Q01DX010 (sc), vehicle: water): 54 % of control | T/C (dose: 16.0 mg/kg/injection, schedule: Q01DX010 (sc), vehicle: water): 65 % of control

C=C1C(C)C2C(Cc3ccccc3)NC(=O)C23C(OC(C)=O)C=CC(C)(O)C(=O)C(C)C/C=C/C3C1O (configuration not stated)
T/C (dose: 7.5 mg/kg/injection, schedule: Q04DX003 (sc), vehicle: Klucel (hydroxypropylcellulose) (HPC)): 54 % of control | T/C (dose: 15.0 mg/kg/injection, schedule: Q04DX003 (sc), vehicle: Klucel (hydroxypropylcellulose) (HPC)): 75 % of control

Cc1cc(N(CCOS(C)(=O)=O)CCOS(C)(=O)=O)ccc1C=Nc1ccc(-c2nc(Cc3ccccc3)sc2C)cc1
T/C [7]: 12 % of control and 26 % of control | T/C [8]: 5 % of control (2×) and 11 % of control | T/C [9]: 1 % of control | T/C (dose: 400.0 mg/kg/injection, schedule: Q01DX010 (sc), vehicle: Klucel (hydroxypropylcellulose) (HPC)): 1 % of control

CC[C@](O)(C(=O)O)c1cc2n(c(=O)c1CO)Cc1cc3ccccc3nc1-2
T/C [5]: -5 % of control | T/C (dose: 31.25 mg/kg/injection, schedule: Q04DX003 (sc), vehicle: saline): 25 % of control | T/C (dose: 62.5 mg/kg/injection, schedule: Q04DX003 (sc), vehicle: saline): 1 % of control | T/C (dose: 125.0 mg/kg/injection, schedule: Q04DX003 (sc), vehicle: saline): -48 % of control

CC1=C(/C=C/C(C)=C/C=C/C(C)=C/CO)C(C)(C)CCC1
T/C (dose: 50.0 mg/kg/injection, schedule: Q04DX003 (sc), vehicle: saline with Tween-80): 105 % of control | T/C (dose: 100.0 mg/kg/injection, schedule: Q04DX003 (sc), vehicle: saline with Tween-80): 150 % of control | T/C (dose: 400.0 mg/kg/injection, schedule: Q04DX003 (sc), vehicle: saline with Tween-80): 111 % of control

Cc1cc(NCCCCCCNc2cc(C)nc3cc(N(C)C)ccc23)c2ccc(N(C)C)cc2n1
T/C (dose: 75.0 mg/kg/injection, schedule: Q04DX003 (sc), vehicle: distilled water + Tween-80 + alcohol): 46 % of control | T/C (dose: 150.0 mg/kg/injection, schedule: Q04DX003 (sc), vehicle: distilled water + Tween-80 + alcohol): 44 % of control

COC(=O)Nc1ccc(Cc2ccc(NC(=O)OC)cc2)cc1
T/C (dose: 800.0 mg/kg/injection, schedule: Q01DX010 (sc), vehicle: saline with Tween-80): 68 % of control

O=CC(NC(=O)N(CCCl)N=O)C(O)C(O)C(O)CO (configuration not stated)
T/C (dose: 1.5 mg/kg/injection, schedule: Q01DX010 (sc), vehicle: Klucel (hydroxypropylcellulose) (HPC)): 208 % of control | T/C (dose: 6.0 mg/kg/injection, schedule: Q01DX010 (sc), vehicle: Klucel (hydroxypropylcellulose) (HPC)): 20 % of control and 45 % of control | T/C (dose: 12.0 mg/kg/injection, schedule: Q01DX010 (sc), vehicle: Klucel (hydroxypropylcellulose) (HPC)): -23 % of control

COC(=O)Nc1cccc(-c2nc3ccc(NC(=O)OC)cc3c(=O)n2-c2ccccc2)c1
T/C (dose: 25.0 mg/kg/injection, schedule: Q01DX010 (sc), vehicle: Klucel (hydroxypropylcellulose) (HPC)): 99 % of control | T/C [7]: 160 % of control | T/C [8]: 93 % of control | T/C [9]: 84 % of control

CCCCCC[C@H]([C@H](C)O)n1cnc2c(N)ncnc21
T/C [8]: 52 % of control | T/C [9]: 34 % of control

CC(=O)Nc1ccc(S(=O)(=O)CO)cc1
T/C (dose: 300.0 mg/kg/injection, schedule: Q04DX003 (sc), vehicle: saline with Tween-80): 90 % of control | T/C (dose: 600.0 mg/kg/injection, schedule: Q04DX003 (sc), vehicle: saline with Tween-80): 66 % of control | T/C (dose: 1200.0 mg/kg/injection, schedule: Q04DX003 (sc), vehicle: saline with Tween-80): 96 % of control | T/C (dose: 2400.0 mg/kg/injection, schedule: Q04DX003 (sc), vehicle: saline with Tween-80): 67 % of control

COc1ccc(C[C@H](N)C(=O)NC2C(CO)OC(n3cnc4c(N(C)C)ncnc43)C2O)cc1 (some centres not stated)
T/C [3]: 109 % of control | T/C [4]: 74 % of control

O=C(Nc1nncs1)c1ccncc1
T/C [6]: 115 % of control | T/C [1]: 91 % of control
